US20080118480A1, “Methods and Compositions for Directing Migration of Neural Progenitor Cells” (IMCLONE SYSTEMS INCORPORATED, priority 2003, published 2008)
“Also recorded” adds a separate entry of the source.

Tests used:
Format in all cases: cell-based, rat
[1] = tested on: subventricular zone (SVZ) explants; experiment: Migration of neural progenitor cells from SVZ explants in collagen matrix
From the text: The frontal lobes of the brains of one-day-old Sprague-Dawley rat pups (Size, Zurich, Switzerland) were isolated and cut into 300 μm thick coronal sections with a McIllwain tissue chopper. From these slices the anterior part of the subventricular zone (SVZ) was microdissected. The SVZ explants were embedded in a collagen matrix and cultured for 7 days in chemically-defined serum-free medium (50% Dulbecco's modified Eagle's medium [Gibco, Berlin, […]], 50% F12, HEPES, Tris-HCl, and complemented with transferrin human 20 μg/ml, putrescine 100 μM, sodium selenite 30 nM, triiodothyronin 1 nM, docosahexaenoic acid 0.5 μg/ml, arachidonic acid 1 μg/ml, insulin 60 U/l) under 5% CO2. The medium was changed every 3rd day. For co-culture experiments, SVZ explants were cultured in the presence of murine C2C12 myoblasts that had been engineered to secret […] et al., 2001). C2C12 cells were suspended in a drop of collagen matrix which was placed at a distance of approximately 1,000 μm from the SVZ explant. As a control, mock-transfected cells of the same origin were placed into the collagen matrix in a similar manner and at the same distance, but on the opposite side of the explant. Cell migration was assessed at the end of the 7th day in culture. Three categories were established: 1, no migration: no or only a few cells emigrated from the explants; 2, symmetrical migration: numerous cells had left the explants, the distance of the migrating front of the cells exceeded 50 μm, no directionality of migration; 3, asymmetrical or directional migration: when the distance of the migrating front were at least twice that on the other side and exceeded 50 μm.

[2] = tested on: neural progenitor cells; experiment: Dunn chamber chemotaxis / chemokinesis of neural progenitor cells
Method: The SVZ was dissected from coronal slices of newborn rat brains, dissociated mechanically and trypsinized according to methods known in the art (See Lim et al. “Noggin antagonizes BMP signaling to create a niche for adult neurogenesis, Neuron, 28: 713-726 (2000), which is incorporated by reference herein). SVZ progenitors were purified using percoll gradient centrifugation according to methods known in the art (See Lim et al., 2000) and seeded onto matrigel (0.24 mg/cm^2)- or laminin-coated coverslips. Isolated cells were allowed to grow in Neurobasal medium supplemented with 20 ng/ml FGF-2, 1×B27, 2 mM […], 1 mM sodium pyruvate, 2 mM N-acetyl-cysteine, and 1% penicillin-streptomycin. Cultures were fed every three days with fresh medium containing 20 ng/ml FGF-2.
[…] Cell Sci., 99:769-775 (1991); Allen et al., “A role for Cdc42 in macrophage chemotaxis,” J. Cell. Biol, 141:1147-1157 (1998), both of which are incorporated by reference herein). Recombinant human VEGF-CΔNΔC (Dr. M. Skobe, Cancer Center, Mount Sinai Medical Center, New York) was used in some experiments. The Dunn chamber is made from a Helber bacteria counting chamber by grinding a circular well in the central platform to leave a 1 mm wide annular bridge between the inner and the outer well. Chemoattractants added to the outer well of the device will diffuse across the bridge to the inner blind well of the chamber and form a gradient. This apparatus allows one to determine the direction of migration in relation to the direction of the gradient.
Coverslips with cells were inverted onto the chamber and cell migration was recorded through the annular bridge between the concentric inner and outer wells, and a period of 2 hours was chosen to assess cell migration. In these studies, a systematic sampling was applied and all cells within the migration region of the chamber were recorded and analyzed. Data were recorded every 10 minutes using a ZEISS 10× objective via a HAMAMATSU CCD video camera using Openlab software.
[…] For chemokinesis experiments, VEGF (20 ng/ml) or FGF-2 (20 ng/ml) was added to both outer and inner wells of the Dunn chamber.
Directionality of cell movement was analyzed using scatter diagrams of cell displacement. The diagrams were oriented so that the position of the outer well of the chamber was vertically upwards (y direction). Each point represents the final positions of the cells at the end of the recording period where the starting point of migration is fixed at the intersection of the two axes.
To determine the efficiency of forward migration during the 2-hour recording period, each cell's forward migration index (FMI) was calculated as the ratio of forward progress (net distance the cell progressed in the direction of VEGF source) to the total path length (total distance the cell traveled through the field) (Foxman et al., 1999). FMI values were negative when cells moved away from the source of VEGF. The cell speed was calculated for each lapse interval recorded during the 2-hour period.

[3] = tested on: VEGFR-2; experiment: Immunoprecipitation and Western blot of VEGFR-2 protein
Method: Neural progenitor cells from the normal cultures in FGF-2 or from cultures starved of FGF-2 for 12 hours were lysed and VEGFR-2 protein was immunoprecipitated from cell lysates with a polyclonal antibody (sc-504; Santa Cruz Biochemicals, Santa Cruz, Calif.) recognizing amino aids 1158 to 1345 in the mouse VEGFR2 carboxy terminus. Western blot was performed with a polyclonal anti-VEGFR-2 antibody (sc-315; Santa Cruz Biochemicals) recognizing the mouse carboxy terminal amino acids 1348 to 1367.

[4] = tested on: VEGFR-2; experiment: RNase protection assay of VEGF receptor mRNA expression; conditions: 12 hours starvation of FGF-2 versus cells in FGF-2
Method: (§1) Neural progenitor cells at 6 days of culture in FGF-2 or after starvation of FGF-2 for 12 hours were used for RNA preparation. Total cellular RNA was purified using Trizol reagent (Invitrogen). RNase protection assays were performed using cRNA probes for rat VEGFR1 and VEGFR2 as described in Pepper et al. (2000).

[5] = tested on: VEGFR-1; experiment: as above; conditions: 12 hours starvation of FGF-2 versus cells in FGF-2
Method: as §1

| Substance | explants with no significant cell migration ([1]; application of VEGF in the absence of FGF-2) | directionality of migration under chemokinesis conditions ([2]; VEGF (20 ng/ml) in both inner and outer wells, FGF-2 present) | forward migration index (FMI) versus FGF-2 gradient or chemokinesis ([2]; VEGF gradient in the presence of FGF-2, 2-hour recording) | migration speed versus FGF-2 gradient or chemokinesis ([2]; VEGF gradient in the presence of FGF-2, mean over 2 hours) | chemotaxis in a VEGF gradient after FGF-2 starvation ([2]; cells at 5 days starved of FGF-2 for 12 hours, then VEGF gradient) | chemotaxis of neural progenitor cells in a VEGF gradient ([2]; gradient established with 200 ng/ml VEGF in outer well, 20 ng/ml FGF-2 in both wells, day 6 cells, 2-hour recording) | attractive effect on different coating matrices ([2]; laminin-, poly-L-lysine- or matrigel-coated coverslips) | VEGFR-2 protein expression in the presence of FGF-2 ([3]; cultured in FGF-2) | VEGFR-2 protein expression in the absence of FGF-2 ([3]; starved of FGF-2 for 12 hours) | explants with migrating cells symmetrically distributed ([1]; FGF-2 (20 ng/ml), co-cultured with mock-transfected cells) | explants with symmetric migration ([1]; application of VEGF and FGF-2 together or FGF-2 alone) | level of VEGFR-2 transcripts after FGF-2 starvation [4] | level of VEGFR-1 transcripts after FGF-2 starvation [5] | chemotactic response to VEGF after re-addition of FGF-2 ([2]; 12-hour FGF-2 starvation, then 8-hour re-incubation with FGF-2, VEGF gradient) | chemotactic effect of FGF-2 ([2]; FGF-2 gradient, whether or not VEGF was present) |
| --- | --- | --- | --- | --- | --- | --- | --- | --- | --- | --- | --- | --- | --- | --- | --- |
| VEGF | 4/4 | no clear preference for displacement | significantly greater | significantly greater | lose their chemotactic response; also recorded: failed to undergo chemotaxis | clear directionality of migration; also recorded: strong positive chemotaxis; also recorded: migrated efficiently toward the source of VEGF | similar |  |  |  |  |  |  |  |  |
| FGF-2: fibroblast growth factor-2 (FGF-2), used at 20 ng/ml in culture medium |  |  |  |  |  |  |  | substantial expression | little to no expression | 10/10 | 12/12 | fivefold decrease | fivefold decrease | resume their chemotactic response; also recorded: rescued | no chemotactic effect |
